What was measured:
Type in all cases: in vivo
[1] = system: umbrella sedge (Cyperus difformis); assay: Test B flooded paddy test; details: for Plant response rating, Flood, Sedge, Umbrella: 250 g ai/ha, flooded paddy test, visual rating on 0 to 100 scale (0 no effect, 100 complete control) after 13 to 15 days; for Plant response rating, Sedge, Umbrella: Flood (flooded paddy test), 13 to 15 days; for Sedge, Umbrella plant response rating: Flood, scale 0 to 100 (0 no effect, 100 complete control)
Outline: (§1)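 Flooded-pot test: water raised to 3 cm above soil when treating, compound put in the water, level unchanged thereafter. Plants were at 2 leaves. Readout after 13 to 15 days, visual, relative to controls; 0 signifies no effect and 100 complete control.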

rice (Oryza sativa) = assay: Test B flooded paddy test; details: for Plant response rating, Flood, Rice: 250 g ai/ha, flooded paddy test, visual rating on 0 to 100 scale (0 no effect, 100 complete control) after 13 to 15 days; for Plant response rating, Rice: Flood (flooded paddy test), 13 to 15 days; for Rice plant response rating: Flood, scale 0 to 100 (0 no effect, 100 complete control)
Outline: as §1

[2] = system: ducksalad (Heteranthera limosa); assay: Test B flooded paddy test; details: for Plant response rating, Flood, Ducksalad: 250 g ai/ha, flooded paddy test, visual rating on 0 to 100 scale (0 no effect, 100 complete control) after 13 to 15 days; for Plant response rating, Ducksalad: Flood (flooded paddy test), 13 to 15 days; for Ducksalad plant response rating: Flood, scale 0 to 100 (0 no effect, 100 complete control)
Outline: as §1

[3] = system: barnyardgrass (Echinochloa crus-galli); assay: Test B flooded paddy test; details: for Plant response rating, Flood, Barnyardgrass: 250 g ai/ha, flooded paddy test, visual rating on 0 to 100 scale (0 no effect, 100 complete control) after 13 to 15 days; for Plant response rating, Barnyardgrass: Flood (flooded paddy test), 13 to 15 days; for Barnyardgrass plant response rating: Flood, scale 0 to 100 (0 no effect, 100 complete control)
Outline: as §1

corn (Zea mays) = assay: Test A pre-/postemergence plant response
Outline: (§2)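 Both pre- and postemergence treatments are applied simultaneously, using chemicals formulated in a non-phytotoxic solvent mixture with surfactant. Postemergence plants are 2–10 cm high with one to two leaves. After approximately ten days in a greenhouse, injury is scored visually from 0 (none) to 100 (complete control) relative to untreated plants.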

[4] = system: velvetleaf (Abutilon theophrasti); assay: Test A pre-/postemergence plant response
Outline: as §2

[5] = system: wheat (Triticum aestivum); assay: Test A pre-/postemergence plant response
Outline: as §2

[6] = system: large crabgrass (Digitaria sanguinalis); assay: Test A pre-/postemergence plant response
Outline: as §2

[7] = system: pigweed (Amaranthus retroflexus); assay: Test A pre-/postemergence plant response
Outline: as §2

[8] = system: giant foxtail (Setaria faberii); assay: Test A pre-/postemergence plant response
Outline: as §2

[9] = system: morningglory (Ipomoea spp.); assay: Test A pre-/postemergence plant response
Outline: as §2

[10] = system: barnyardgrass (Echinochloa crus-galli); assay: Test A pre-/postemergence plant response
Outline: as §2

[11] = 62 g ai/ha, scale of 0 to 100 where 0 is no effect and 100 is complete control
[12] = 125 g ai/ha, scale 0 to 100, 0 is no effect, 100 is complete control
[13] = Postemergence, 125 g ai/ha, 0 to 100 scale where 0 is no effect and 100 is complete control
[14] = Postemergence, 500 g ai/ha, visual injury, 0 to 100 scale (0 no effect, 100 complete control), approx. ten days
[15] = Preemergence, 125 g ai/ha, 0 to 100 scale, 0 = no effect, 100 = complete control
[16] = Preemergence, 500 g ai/ha, 0 to 100 scale, 0 = no effect, 100 = complete control
[17] = 31 g ai/ha, scale of 0 to 100 where 0 is no effect and 100 is complete control
[18] = 62 g ai/ha, scale 0 to 100, 0 is no effect, 100 is complete control
[19] = Postemergence, 125 g ai/ha, visual injury, 0 to 100 scale (0 no effect, 100 complete control), approx. ten days
[20] = Postemergence, 500 g ai/ha, 0 to 100 scale, 0 = no effect, 100 = complete control, approx. ten days
[21] = Preemergence, 500 g ai/ha, visual injury, 0 to 100 scale (0 no effect, 100 complete control), approx. ten days

Cc1ccc(Cl)cc1-n1c(-c2cccc(F)c2)ncc(C(=O)C2=C(O)CCCC2=O)c1=O [Compound 184]
Plant response rating, Flood, Sedge, Umbrella [1]: 95
Plant response rating, Sedge, Umbrella [1, 11]: 80
Plant response rating, Sedge, Umbrella [1, 12]: 80
Sedge, Umbrella plant response rating ([1]; 31 g ai/ha): 65
Plant response rating, Flood, Rice (rice (Oryza sativa)): 15
Plant response rating, Rice (rice (Oryza sativa); [11]): 15
Plant response rating, Rice (rice (Oryza sativa); [12]): 15
Rice plant response rating (rice (Oryza sativa); 31 g ai/ha): 15
Plant response rating, Flood, Ducksalad [2]: 100
Plant response rating, Ducksalad [2, 11]: 100
Plant response rating, Ducksalad [2, 12]: 100
Ducksalad plant response rating ([2]; 31 g ai/ha): 95
Plant response rating, Flood, Barnyardgrass [3]: 25
Plant response rating, Barnyardgrass [3, 11]: 0
Plant response rating, Barnyardgrass [3, 12]: 20
Barnyardgrass plant response rating ([3]; 31 g ai/ha): 0
Plant response rating, Corn (corn (Zea mays); [13]): 10
Corn plant response rating (corn (Zea mays); [14]): 80
Plant response rating, Corn (corn (Zea mays); [15]): 0
Plant response rating, Corn (corn (Zea mays); [16]): 20
Plant response rating, Velvetleaf [4, 13]: 100
Velvetleaf plant response rating [4, 14]: 100
Plant response rating, Velvetleaf [4, 15]: 80
Plant response rating, Velvetleaf [4, 16]: 100
Plant response rating, Wheat [5, 13]: 0
Wheat plant response rating [5, 14]: 50
Plant response rating, Wheat [5, 15]: 0
Plant response rating, Wheat [5, 16]: 0
Plant response rating, Crabgrass, Large [6, 13]: 80
Crabgrass, Large plant response rating [6, 14]: 100
Plant response rating, Crabgrass, Large [6, 15]: 30
Plant response rating, Crabgrass, Large [6, 16]: 100
Plant response rating, Pigweed [7, 13]: 100
Pigweed plant response rating [7, 14]: 100
Plant response rating, Pigweed [7, 15]: 70
Plant response rating, Pigweed [7, 16]: 90
Plant response rating, Foxtail, Giant [8, 13]: 90
Foxtail, Giant plant response rating [8, 14]: 100
Plant response rating, Foxtail, Giant [8, 15]: 30
Plant response rating, Foxtail, Giant [8, 16]: 90
Plant response rating, Morningglory [9, 13]: 50
Morningglory plant response rating [9, 14]: 100
Plant response rating, Morningglory [9, 15]: 10
Plant response rating, Morningglory [9, 16]: 60
Plant response rating, Barnyardgrass [10, 13]: 90
Barnyardgrass plant response rating [10, 14]: 100
Plant response rating, Barnyardgrass [10, 15]: 20
Plant response rating, Barnyardgrass [10, 16]: 90

Cc1cc(C)cc(-n2c(-c3ccccc3)ncc(C(=O)C3=C(O)CCCC3=O)c2=O)c1 [Compound 33]
Plant response rating, Flood, Sedge, Umbrella [1]: 85
Plant response rating, Sedge, Umbrella [1, 17]: 20
Plant response rating, Sedge, Umbrella [1, 18]: 30
Plant response rating, Sedge, Umbrella [1, 12]: 50
Plant response rating, Flood, Rice (rice (Oryza sativa)): 50
Plant response rating, Rice (rice (Oryza sativa); [17]): 0
Plant response rating, Rice (rice (Oryza sativa); [18]): 0
Plant response rating, Rice (rice (Oryza sativa); [12]): 20
Plant response rating, Flood, Ducksalad [2]: 95
Plant response rating, Ducksalad [2, 17]: 60
Plant response rating, Ducksalad [2, 18]: 75
Plant response rating, Ducksalad [2, 12]: 80
Plant response rating, Flood, Barnyardgrass [3]: 40
Plant response rating, Barnyardgrass [3, 17]: 0
Plant response rating, Barnyardgrass [3, 18]: 20
Plant response rating, Barnyardgrass [3, 12]: 30
Corn plant response rating (corn (Zea mays); [19]): 0
Plant response rating, Corn (corn (Zea mays); [20]): 20
Plant response rating, Corn (corn (Zea mays); [15]): 0
Plant response rating, Corn (corn (Zea mays); [21]): 30
Velvetleaf plant response rating [4, 19]: 100
Plant response rating, Velvetleaf [4, 20]: 100
Plant response rating, Velvetleaf [4, 15]: 50
Plant response rating, Velvetleaf [4, 21]: 80
Wheat plant response rating [5, 19]: 0
Plant response rating, Wheat [5, 20]: 20
Plant response rating, Wheat [5, 15]: 0
Plant response rating, Wheat [5, 21]: 10
Crabgrass, Large plant response rating [6, 19]: 70
Plant response rating, Crabgrass, Large [6, 20]: 100
Plant response rating, Crabgrass, Large [6, 15]: 80
Plant response rating, Crabgrass, Large [6, 21]: 100
Pigweed plant response rating [7, 19]: 90
Plant response rating, Pigweed [7, 20]: 100
Plant response rating, Pigweed [7, 15]: 80
Plant response rating, Pigweed [7, 21]: 90
Foxtail, Giant plant response rating [8, 19]: 60
Plant response rating, Foxtail, Giant [8, 20]: 100
Plant response rating, Foxtail, Giant [8, 15]: 30
Plant response rating, Foxtail, Giant [8, 21]: 90
Morningglory plant response rating [9, 19]: 80
Plant response rating, Morningglory [9, 20]: 90
Plant response rating, Morningglory [9, 15]: 0
Plant response rating, Morningglory [9, 21]: 50
Barnyardgrass plant response rating [10, 19]: 80
Plant response rating, Barnyardgrass [10, 20]: 100
Plant response rating, Barnyardgrass [10, 15]: 10
Plant response rating, Barnyardgrass [10, 21]: 90

Cc1cc(-n2c(-c3cccc(F)c3)ncc(C(=O)C3=C(O)CCCC3=O)c2=O)ccc1F [Compound 191]
Plant response rating, Flood, Sedge, Umbrella [1]: 85
Plant response rating, Sedge, Umbrella [1, 11]: 75
Plant response rating, Sedge, Umbrella [1, 12]: 80
Sedge, Umbrella plant response rating ([1]; 31 g ai/ha): 60
Plant response rating, Flood, Rice (rice (Oryza sativa)): 0
Plant response rating, Rice (rice (Oryza sativa); [11]): 0
Plant response rating, Rice (rice (Oryza sativa); [12]): 0
Rice plant response rating (rice (Oryza sativa); 31 g ai/ha): 0
Plant response rating, Flood, Ducksalad [2]: 100
Plant response rating, Ducksalad [2, 11]: 85
Plant response rating, Ducksalad [2, 12]: 75
Ducksalad plant response rating ([2]; 31 g ai/ha): 65
Plant response rating, Flood, Barnyardgrass [3]: 25
Plant response rating, Barnyardgrass [3, 11]: 0
Plant response rating, Barnyardgrass [3, 12]: 0
Barnyardgrass plant response rating ([3]; 31 g ai/ha): 0
Plant response rating, Corn (corn (Zea mays); [13]): 0
Corn plant response rating (corn (Zea mays); [14]): 50
Plant response rating, Corn (corn (Zea mays); [15]): 0
Plant response rating, Corn (corn (Zea mays); [16]): 30
Plant response rating, Velvetleaf [4, 13]: 100
Velvetleaf plant response rating [4, 14]: 100
Plant response rating, Velvetleaf [4, 15]: 60
Plant response rating, Velvetleaf [4, 16]: 100
Plant response rating, Wheat [5, 13]: 0
Wheat plant response rating [5, 14]: 50
Plant response rating, Wheat [5, 15]: 0
Plant response rating, Wheat [5, 16]: 20
Plant response rating, Crabgrass, Large [6, 13]: 70
Crabgrass, Large plant response rating [6, 14]: 100
Plant response rating, Crabgrass, Large [6, 15]: 50
Plant response rating, Crabgrass, Large [6, 16]: 100
Plant response rating, Pigweed [7, 13]: 80
Pigweed plant response rating [7, 14]: 90
Plant response rating, Pigweed [7, 15]: 80
Plant response rating, Pigweed [7, 16]: 100
Plant response rating, Foxtail, Giant [8, 13]: 80
Foxtail, Giant plant response rating [8, 14]: 100
Plant response rating, Foxtail, Giant [8, 15]: 40
Plant response rating, Foxtail, Giant [8, 16]: 90
Plant response rating, Morningglory [9, 13]: 90
Morningglory plant response rating [9, 14]: 100
Plant response rating, Morningglory [9, 15]: 0
Plant response rating, Morningglory [9, 16]: 70
Plant response rating, Barnyardgrass [10, 13]: 90
Barnyardgrass plant response rating [10, 14]: 100
Plant response rating, Barnyardgrass [10, 15]: 10
Plant response rating, Barnyardgrass [10, 16]: 80
